Laboratory results reported in patent publication US20090069304A1, “MMP-13 SELECTIVE INHIBITOR” (SHIONOGI & CO., LTD., priority 2006, published 2009).

Experiments:
[1] = target: T1, MMP-2 (Homo sapiens, UniProt P08253); experiment: Enzyme inhibiting activity of MMPs (fluorogenic peptide substrate), MMP-2; format: biochemical; conditions: human MMP-2; substrate MOCAc-Pro-Leu-Gly-Leu-A2Pr(DNP)-Ala-Arg-NH2
T1 construct: purchased Calbiochem (EMD/MERCK Biosciences)
T1 sequence (P08253 110-660): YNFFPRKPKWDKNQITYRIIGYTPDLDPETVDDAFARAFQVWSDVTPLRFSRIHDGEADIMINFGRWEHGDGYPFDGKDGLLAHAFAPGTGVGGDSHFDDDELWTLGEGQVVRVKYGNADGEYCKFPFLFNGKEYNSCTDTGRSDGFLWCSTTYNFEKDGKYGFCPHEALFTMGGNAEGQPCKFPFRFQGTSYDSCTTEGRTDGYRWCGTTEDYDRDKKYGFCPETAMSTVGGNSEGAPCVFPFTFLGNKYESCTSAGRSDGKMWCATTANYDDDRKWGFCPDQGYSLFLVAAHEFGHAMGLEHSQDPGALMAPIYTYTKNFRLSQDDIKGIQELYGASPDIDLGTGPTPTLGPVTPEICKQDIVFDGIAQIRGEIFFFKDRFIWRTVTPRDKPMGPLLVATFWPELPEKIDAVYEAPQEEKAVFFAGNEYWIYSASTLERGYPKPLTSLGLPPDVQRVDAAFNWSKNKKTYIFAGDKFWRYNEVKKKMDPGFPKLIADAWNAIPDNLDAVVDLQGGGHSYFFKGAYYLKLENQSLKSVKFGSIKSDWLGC
Procedure: (§1) Various human MMPs (MMP-2, MMP-9 and MMP-13) were purchased from Calbiochem (EMD/MERCK Biosciences).
(§2) The enzyme activity of MMPs was measured according to the method described in C. Graham Knight, Frances Willenbrock and Gillian Murphy: A novel coumarin-labelled peptide for sensitive continuous assays of the matrix metalloproteinases: FEBS LETT., 296, (1992), 263-266. As a substrate, MOCAc-Pro-Leu-Gly-Leu-A2Pr(DNP)-Ala-Arg-NH2 (Peptide Institute, Inc. Osaka, Japan) was used, and the following four assays are performed per compound (inhibitor) for measuring the inhibiting activity.
(§3) (A) Substrate (synthetic substrate), enzyme (MMPs), inhibitor (B) Substrate (synthetic substrate), inhibitor (C) Substrate (synthetic substrate), enzyme (MMPs) (D) Substrate (synthetic substrate) In each assay, the fluorescent intensity was measured, and inhibition (%) was calculated by the following equation.
(§4) Inhibition(%)=[I−(A−B)/(C−D)]×100
(§5) IC50 indicates a concentration at which inhibition (%) is 50%.

[2] = target: T2, MMP-9 (Homo sapiens, UniProt P14780); experiment: Enzyme inhibiting activity of MMPs (fluorogenic peptide substrate), MMP-9; format: biochemical; conditions: human MMP-9; substrate MOCAc-Pro-Leu-Gly-Leu-A2Pr(DNP)-Ala-Arg-NH2
T2 construct: purchased Calbiochem (EMD/MERCK Biosciences)
T2 sequence (P14780 94-707): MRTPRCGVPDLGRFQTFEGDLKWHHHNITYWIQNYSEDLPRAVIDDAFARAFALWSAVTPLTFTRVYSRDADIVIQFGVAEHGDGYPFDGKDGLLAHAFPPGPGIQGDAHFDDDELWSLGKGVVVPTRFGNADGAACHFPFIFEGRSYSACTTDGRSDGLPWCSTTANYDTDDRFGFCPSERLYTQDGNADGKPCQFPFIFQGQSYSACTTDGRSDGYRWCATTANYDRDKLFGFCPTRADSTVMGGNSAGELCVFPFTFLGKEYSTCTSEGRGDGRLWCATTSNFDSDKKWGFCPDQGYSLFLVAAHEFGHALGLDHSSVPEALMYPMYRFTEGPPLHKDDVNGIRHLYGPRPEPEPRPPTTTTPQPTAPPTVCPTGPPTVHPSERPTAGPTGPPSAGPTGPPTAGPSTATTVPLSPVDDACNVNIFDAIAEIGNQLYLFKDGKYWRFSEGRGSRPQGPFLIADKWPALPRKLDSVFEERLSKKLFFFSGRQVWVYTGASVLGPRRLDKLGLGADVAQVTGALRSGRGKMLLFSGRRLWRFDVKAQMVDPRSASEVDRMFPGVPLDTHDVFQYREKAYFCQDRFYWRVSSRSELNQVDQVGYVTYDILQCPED
Procedure: as §1, §2, §3, §4, §5

[3] = target: T3, MMP-13 (Homo sapiens, UniProt P45452); experiment: Enzyme inhibiting activity of MMPs (fluorogenic peptide substrate), MMP-13; format: biochemical; conditions: human MMP-13, proenzyme activated with APMA; substrate MOCAc-Pro-Leu-Gly-Leu-A2Pr(DNP)-Ala-Arg-NH2
T3 construct: purchased Calbiochem (EMD/MERCK Biosciences)
Procedure: as §1
Since the purchased MMP-13 was Proenzyme, the activated one was used, which was incubated at 37° C. for 2 hours after the successive addition of an assay buffer (containing 50 mM Tris-HCl (pH7.6), 0.3 M NaCl, 10 mM CaCl2, 0.005% Brij35) and APMA (final concentration 1 mM) to the enzyme solution.
as §2, §3, §4, §5

Compound	IC50 [1]	IC50 [2]	IC50 [3]	melting point
CCC[C@H](NS(=O)(=O)N1CCN(c2ccc(C#Cc3ccc4cc(OC)ccc4c3)cc2)CC1)C(=O)O [Compound I-1, (S)-2-{4-[4-(6-methoxy-naphthalen-2-ylethynyl)-phenyl]-piperazine-1-sulfonylamino}-pentanoic acid]	> 10 µM	> 10 µM	0.121 µM	187 to 190 °C (dec.)
C[C@@H](NS(=O)(=O)N1CCN(c2ccc(OCc3ccc4ccccc4c3)cc2)CC1)C(=O)O [Compound I-2, (R)-2-{4-[4-(naphthalen-2-ylmethoxy)-phenyl]-piperazine-1-sulfonylamino}-propionic acid]				167 to 171 °C
COc1ccc2cc(C#Cc3ccc(N4CCN(S(=O)(=O)N[C@H](C(=O)O)C(C)C)CC4)cc3)ccc2c1 [Compound I-5, (S)-2-{4-[4-(6-methoxy-naphthalen-2-ylethynyl)-phenyl]-piperazine-1-sulfonylamino}-3-methyl-butanoic acid]	> 10 µM	> 10 µM	0.11 µM	
COc1ccc2cc(C#Cc3ccc(C4CCN(S(=O)(=O)N[C@H](C)C(=O)O)CC4)cc3)ccc2c1 [Compound I-11, (R)-2-{4-[4-(6-methoxy-naphthalen-2-ylethynyl)-phenyl]-piperidine-1-sulfonylamino}-propionic acid]	> 10 µM	> 10 µM	0.0549 µM	
CCC[C@H](NS(=O)(=O)N1CCN(c2ccc(/C=C/c3ccc4ccccc4c3)cc2)CC1)C(=O)O [Compound I-13]	> 10 µM	> 10 µM	0.0443 µM	
COc1ccc2cc(COc3ccc(N4CCN(S(=O)(=O)N[C@@H](C)C(=O)O)CC4)cc3)ccc2c1 [Compound I-15, (S)-2-{4-[4-(6-methoxy-naphthalen-2-ylmethoxy)-phenyl]-piperazine-1-sulfonylamino}-propionic acid]	1 to 10 µM	> 10 µM	0.126 µM	
COc1ccc2cc(COc3ccc(C4CCN(S(=O)(=O)NC(C)C(=O)O)CC4)cc3)ccc2c1 (centres unmarked) [Compound I-19]	> 10 µM	> 10 µM	0.142 µM	
CCC[C@H](NS(=O)(=O)N1CCC(c2ccc(CCc3ccc4cc(OC)ccc4c3)cc2)CC1)C(=O)O [Compound I-20, (S)-2-(4-{4-[2-(6-methoxy-naphthalen-2-yl)-ethyl]-phenyl}-piperidine-1-sulfonylamino]-pentanoic acid]	1 to 10 µM	> 10 µM	0.0945 µM	
COc1ccc2cc(/C=C/c3ccc(N4CCN(S(=O)(=O)N[C@@H](C)C(=O)O)CC4)cc3)ccc2c1 [Compound I-21, (S)-2-(4-{4-[(E)-2-(6-methoxy-naphthalen-2-yl)-vinyl]-phenyl}-piperazine-1-sulfonylamino}-propionic acid]	> 10 µM	> 10 µM	0.176 µM	
CCC[C@H](NS(=O)(=O)N1CCC(c2ccc(C=Cc3ccc4cc(OC)ccc4c3)cc2)CC1)C(=O)O [Compound I-24, (S)-2-(4-{4-[(A)-2-(6-methoxy-naphthalen-2-yl)-vinyl]-phenyl)-piperidine-1-sulfonylamino}-pentanoic acid]	> 10 µM	> 10 µM	0.138 µM	
CCC[C@H](NS(=O)(=O)N1CCC(c2ccc(/C=C/c3ccc4ccccc4c3)cc2)CC1)C(=O)O [Compound I-25]	> 10 µM	> 10 µM	0.145 µM	
CCOc1ccc2cc(C#Cc3ccc(N4CCN(S(=O)(=O)N[C@H](C)C(=O)O)CC4)cc3)ccc2c1 [Compound I-27, (R)-2-{4-[4-(6-ethoxy-naphthalen-2-ylethynyl)-phenyl]-piperazine-1-sulfonylamino)-propionic acid]	> 10 µM	> 10 µM	0.0423 µM	
CCC[C@H](NS(=O)(=O)N1CCN(c2ccc(C#Cc3ccc4cc(OCC)ccc4c3)cc2)CC1)C(=O)O [Compound I-28, (S)-2-{4-[4-(6-ethoxy-naphthalen-2-ylethynyl)-phenyl]-piperazine-1-sulfonylamino)-pentanoic acid]	> 10 µM	> 10 µM	0.0771 µM	
C[C@@H](NS(=O)(=O)N1CCN(c2ccc(C#Cc3ccc4cc(OCC5CC5)ccc4c3)cc2)CC1)C(=O)O [Compound I-32, (R)-2-{4-[4-(6-cyclopropylmethoxy-naphthalen-2-ylethynyl)-phenyl]-piperazine-1-sulfonylamino)-propionic acid]	1 to 10 µM	> 10 µM	0.0685 µM	
COc1ccc2cc(CNc3ccc(N4CCN(S(=O)(=O)N[C@H](C)C(=O)O)CC4)cc3)ccc2c1 [Compound I-45, (R)-2-(4-{4-[4-(6-methoxy-naphthalen-2-ylmethyl)-amino]-phenyl}-piperazine-1-sulfonylamino)-propionic acid]	1 to 10 µM	> 10 µM	0.186 µM	
COc1ccc2cc(C#Cc3ccc(N4CCN(S(=O)(=O)N[C@H](C)C(=O)O)C(C)C4)cc3)ccc2c1 (some centres unmarked) [Compound I-47]	> 10 µM	> 10 µM	0.131 µM	
CCC[C@H](NS(=O)(=O)N1CCN(c2ccc(/C=C/c3ccc4cc(OCOC)ccc4c3)cc2)CC1)C(=O)O [Compound I-49, (S)-2-(4-{4-[(E)-2-(6-methoxymethoxy-naphthalen-2-yl)-vinyl]-phenyl}-piperazine-1-sulfonylamino)-pentanoic acid]	1 to 10 µM	> 10 µM	0.0965 µM	
COc1ccc2cc(C#Cc3ccc(N4CCN(S(=O)(=O)N[C@H](C)C(=O)O)C[C@@H]4C)cc3)ccc2c1 [Compound I-53]	1 to 10 µM	> 10 µM	0.107 µM	
CON=Cc1ccc2cc(C#Cc3ccc(N4CCN(S(=O)(=O)N[C@H](C)C(=O)O)CC4)cc3)ccc2c1 [Compound I-66, (R)-2-(4-{4-[6-(methoxyimino-methyl)-naphthalen-2-ylethynyl]-phenyl)-piperazine-1-sulfonylamino]-propionic acid]	> 10 µM	> 10 µM	0.0396 µM	
